Experimental data: PubChem BioAssay AID2060492 (Molecular Pharmacology Branch, DTP, NCI, 2025)

Tested on: 695427-040-R-J1-PDC complex spheroids, viability percent T/C
Experiment: Anticancer human tumor 695427-040-R-J1-PDC patient-derived colon adenocarcinoma cell line growth inhibition [GQUAD]
Settings: for IC50: curve of first compound; for viability, T/C: stronger effect = lower value; active means viability on the fitted dose curve at most 10% of control; inactive means the rest
Text: DNA G-quadruplex Stabilizer Agents in Combinations in Complex Spheroids
A high-throughput screen of multi-cell type tumor spheroids was designed to identify active combinations of DNA G-quadruplex stabilizer agents and targeted small molecules. Complex spheroids include a stromal component modeled by human endothelial cells (HUVEC) and fibroblasts modeled by human mesenchymal stem cells (MSCs). The concentration ranges selected for each drug and investigational agent were based upon clinically achievable concentrations if the clinical Cmax of the agent was known.
Compounds. The drugs and investigational agents: pidnarulex (CX-5461; NSC782164), APTO-253 (NSC789042), BRACO-19 (NSC847499), peposertib (NSC802822), ceralasertib (NSC780249), elimusertib (NSC800525), camonsertib (NSC841442), AZD-1390 (NSC803789), olaparib (NSC753686), talazoparib (NSC767125), ART-558 (NSC835418), sotorasib (NSC818433), MRTX-1133 (NSC836407), SN-38 (NSC673596), topotecan (NSC609699), etoposide (NSC141540), doxorubicin (NSC123127), gemcitabine (NSC613327), 5-fluorouracil (NSC19893), paclitaxel (NSC125973), vemurafenib (NSC761431), panobinostat (NSC761190), R-306465 (JNJ-16241199; NSC773264), adavosertib (NSC754352), TP-3654 (NSC805149), carboplatin (NSC241240), KSQ-4279 (NSC840948), and staurosporine (NSC755774) were obtained from the National Cancer Institute (NCI) Developmental Therapeutics Program Chemical Repository (34). The FDA-approved anticancer drug set is available from the NCI Developmental Therapeutics Program. […] The stock solutions were prepared in dimethyl sulfoxide (DMSO, Sigma-Aldrich, St. Louis, MO, cat. D2650) at 800-fold the tested concentration and stored at -70 degrees C prior to their use. All drugs and investigational agents were tested over a range starting from a high concentration at or near the clinical Cmax and decreasing in half-log increments. If the clinical Cmax for an agent had not been determined, the highest concentration tested was 10 microM.
2.3 Cell Culture. All cells were maintained in an incubator at 37 degrees C and 5% CO2 with 95% humidity. The PDC lines were cultured according to standard operating procedures established by the NCI PDMR. All PDCs were thawed and cultured in Matrigel-coated flasks prepared with a working solution of 1X Ham's F-12 nutrient mix, without supplementation (Invitrogen, cat. 11765054), 100 U/mL penicillin-streptomycin (Invitrogen, cat. 15140122), and 2.5% Matrigel (Corning Inc., cat. 354248) for the first three passages. The 857933-349-R-J2-PDC line was cultured in 6C/Colon 1B media, which includes advanced DMEM/F-12 (Thermo Fisher Scientific, cat. 12634028), 10 mM HEPES (Thermo Fisher Scientific, cat. 15630080), 1X GlutaMAX supplement (Thermo Fisher Scientific, cat. 35050061), 0.1 mg/mL primocin (InvivoGen, cat. ant-pm-2), 10% defined fetal bovine serum, heat inactivated (HyClone Laboratories Inc., cat. SH30070.03HI), 50% L-WRN conditioned media (ATCC, cat. CRL-3276), 1.25 mM N-Acetyl-L-cysteine (Sigma-Aldrich, cat. A9165), 10 mM nicotinamide (Sigma-Aldrich, cat. N0636), 1X B-27 supplement (Thermo Fisher Scientific, cat. 17504044), 1X N-2 supplement (Thermo Fisher Scientific, cat. 17502048), 10 microM Y-27632 dihydrochloride (Tocris Bioscience, cat. 1254), and 50 ng/mL human EGF recombinant protein (Thermo Fisher Scientific, cat. PHG0311). The 485176-168-R4-J1-PDC line was cultured in Panc media, which includes all 6C/Colon 1B media components plus 100 ng/mL human FGF-10 (Thermo Fisher Scientific, cat. 100-26), 500 nM SB-431542 (Selleckchem, cat. S1067), and gastrin (Tocris, cat. 3006).
[…]
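Further: spheroids exposed to compounds for seven days before readout.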

CC(C)n1c(=O)n(C)c2cnc3cc(F)c(-c4ccc(OCCCN5CCCCC5)nc4)cc3c21 + CN(C)c1ccc(Nc2c3ccc(NC(=O)CCN4CCCC4)cc3nc3cc(NC(=O)CCN4CCCC4)ccc23)cc1
inactive: viability, T/C (second compound 0.0316 µM, first compound 0.0316 µM) 113% | viability, T/C (second compound 0.0316 µM, first compound 0.1 µM) 96.1% | viability, T/C (second compound 0.0316 µM, first compound 0.316 µM) 111% | viability, T/C (second compound 0.0316 µM, first compound 1 µM) 101% | viability, T/C (second compound 0.0316 µM, first compound 3.16 µM) 104% | viability, T/C (second compound 0.0316 µM, first compound 10 µM) 66% | viability, T/C (second compound 0.1 µM, first compound 0.0316 µM) 107% | viability, T/C (second compound 0.1 µM, first compound 0.1 µM) 97.3% | viability, T/C (second compound 0.1 µM, first compound 0.316 µM) 106% | viability, T/C (second compound 0.1 µM, first compound 1 µM) 102% | viability, T/C (second compound 0.1 µM, first compound 3.16 µM) 110% | viability, T/C (second compound 0.1 µM, first compound 10 µM) 62.5% | viability, T/C (second compound 0.316 µM, first compound 0.0316 µM) 108% | viability, T/C (second compound 0.316 µM, first compound 0.1 µM) 98.5% | viability, T/C (second compound 0.316 µM, first compound 0.316 µM) 102% | viability, T/C (second compound 0.316 µM, first compound 1 µM) 106% | viability, T/C (second compound 0.316 µM, first compound 3.16 µM) 100% | viability, T/C (second compound 0.316 µM, first compound 10 µM) 67.4% | viability, T/C (second compound 1 µM, first compound 0.0316 µM) 101% | viability, T/C (second compound 1 µM, first compound 0.1 µM) 102% | viability, T/C (second compound 1 µM, first compound 0.316 µM) 110% | viability, T/C (second compound 1 µM, first compound 1 µM) 105% | viability, T/C (second compound 1 µM, first compound 3.16 µM) 100% | viability, T/C (second compound 1 µM, first compound 10 µM) 62.9% | viability, T/C (second compound 3.16 µM, first compound 0.0316 µM) 86.4% | viability, T/C (second compound 3.16 µM, first compound 0.1 µM) 101% | viability, T/C (second compound 3.16 µM, first compound 0.316 µM) 94.4% | viability, T/C (second compound 3.16 µM, first compound 1 µM) 98.8% | viability, T/C (second compound 3.16 µM, first compound 3.16 µM) 95.5% | viability, T/C (second compound 3.16 µM, first compound 10 µM) 68.1% | viability, T/C (second compound 10 µM, first compound 0.0316 µM) 89.4% | viability, T/C (second compound 10 µM, first compound 0.1 µM) 92.2% | viability, T/C (second compound 10 µM, first compound 0.316 µM) 93.3% | viability, T/C (second compound 10 µM, first compound 1 µM) 89.3% | viability, T/C (second compound 10 µM, first compound 3.16 µM) 93.7% | viability, T/C (second compound 10 µM, first compound 10 µM) 59.4%
> 10 µM: IC50 (second compound 0.0316 µM) | IC50 (second compound 0.1 µM) | IC50 (second compound 0.316 µM) | IC50 (second compound 1 µM) | IC50 (second compound 3.16 µM) | IC50 (second compound 10 µM)
